# Laboratory results reported in patent US11964971B2, “Methods and compositions for modulating splicing” (Skyhawk Therapeutics, Inc., priority 2019, dated 2024).
# What was measured:
# [1] = test system: SMN protein; assay: SMN protein assay (MSD) in SMA patient fibroblasts (GM03813); type: cell-based, human
# Method in brief: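 SMA patient fibroblasts GM03813 (7000 cells/well) treated 48 h with compounds from 2.5 μM to 0.6 nM. Lysate SMN protein quantified by MSD immunoassay against an SMN standard curve (1 to 19.5 μg/ml) on each plate, giving absolute amounts.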
# [2] = test system: SMN FL and SMN Δ7; assay: Quantitative splicing assay (SMN) in SMA patient fibroblasts (GM03813); type: cell-based; conditions: Homo sapiens, Fibroblast; class symbol; read-out: SMN2 Splicing FL EC50 (nM)*
# Method: Spinal muscular atrophy (SMA) patient fibroblasts (GM03813, Coriell) are plated in 96-well plates at 50,000 cells/well. […] Treated cells are lysed and cDNA synthesized using the Fast Advanced Cells-to-Ct kit (Thermofisher A35378) according to the manufacturer's instructions. 2 μL of each cDNA are used in qPCR reactions. […] Reactions are run in a Quant Studio 6 qPCR instrument with default settings.
# [3] = test system: MDR1 (P-gp); assay: MDCK-MDR1 permeability assay, blood-brain-barrier penetration potential; conditions: dog, MDCK-MDR1, pH 7.4, MDCK-MDR1 Efflux Ratio
# [4] = test system: MDR1; assay: in vitro; conditions: dog; for Papp A→B at 120 min, 5 μM: MDCK-MDR1, pH 7.4, MDCK-MDR1: Papp A-B (10^−6, cm/s); for Papp B→A at 120 min, 5 μM: MDCK-MDR1, pH 7.4, MDCK-MDR1: Papp B-A (10^−6, cm/s)
# [5] = test system: MDR1-MDCK cell monolayers; conditions: dog, MDCK-MDR1, 120 min, 5 μM, pH 7.4
Compound,EC50 [1] [nM],EC50 [2] [nM],"efflux ratio at 120 min, 5 μM [3]","Papp A→B at 120 min, 5 μM [4] [×10⁻⁶ cm/s]","Papp B→A at 120 min, 5 μM [4] [×10⁻⁶ cm/s]",MDCK-MDR1: % Recov A-B (%) [5] [%],MDCK-MDR1: % Recov B-A (%) [5] [%]
"CN(c1cnc(-c2cc(F)c(-c3cn[nH]c3)cc2O)cn1)[C@@H]1CC2CC[C@H](N2)[C@@H]1F (single isomer, unassigned) [Compound 40E1]",16 to 50,51 to 100,6,6.63,39.2,54,75
"CN(c1cnc(-c2cc(F)c(-c3cn[nH]c3)cc2O)cn1)[C@H]1C[C@@H]2CCC(N2)[C@H]1F (single isomer, unassigned) [Compound 40E2]",0.01 to 15,16 to 50,5,7.33,37.1,59,72
"CN(c1cnc(-c2ccc(-c3cnn(CF)c3)cc2O)cn1)[C@@H]1CC2CC[C@H](N2)[C@@H]1F (single isomer, unassigned) [Compound 42E1]",16 to 50,51 to 100,6,5.38,30.4,48,59
"CN(c1cnc(-c2ccc(-c3ccn(C)c(=O)c3)cc2O)cn1)[C@@H]1CC2CC[C@H](N2)[C@@H]1F (single isomer, unassigned) [Compound 45E1]",101 to 500,51 to 100,37,1.3,47.6,88,85
"COc1cc(-c2ccc(-c3cnc(N(C)[C@@H]4CC5CC[C@H](N5)[C@@H]4F)cn3)c(O)c2)ncn1 (single isomer, unassigned) [Compound 48E1]",16 to 50,101 to 500,2,4.15,6.9,21,44
"CNC(=O)/C=C/c1cc(O)c(-c2cnc(N(C)[C@H]3C[C@@H]4CCC(N4)[C@H]3F)cn2)cc1F (single isomer, unassigned) [Compound 60E2]",0.01 to 15,51 to 100,24,2.48,60.1,89,89
"COc1cc(-c2ccc(-c3cnc(N(C)[C@@H]4CC5CC(F)(F)[C@@H](C4)N5)cn3)c(O)c2)cnn1 (single isomer, unassigned) [Compound 68E2]",501 to 10000,501 to 10000,5,9.81,47.2,66,89
"CN(c1cnc(-c2ccc(-c3cn[nH]c3)cc2O)cn1)[C@@H]1CC2COC[C@H](N2)[C@@H]1F (single isomer, unassigned) [Compound 72E1]",501 to 10000,501 to 10000,7,8.21,60.9,90,112
"CN(c1cnc(-c2ccc(-c3cn[nH]c3)cc2O)cn1)[C@H]1C[C@@H]2COCC(N2)[C@H]1F (single isomer, unassigned) [Compound 72E2]",101 to 500,501 to 10000,8,9.82,82.5,96,113
"COc1cc(-c2ccc(-c3cnc(N(C)[C@H]4C[C@@H]5COCC(N5)[C@H]4F)cn3)c(O)c2)cnn1 (single isomer, unassigned) [Compound 74E2]",501 to 10000,501 to 10000,18,3.6,63.2,92,104
"CN(c1cnc(-c2ccc(C3=CC(=O)NC3)cc2O)cn1)[C@H]1C[C@@H]2CCC(N2)[C@H]1F (single isomer, unassigned) [Compound 78E2]",16 to 50,501 to 10000,55,0.56,30.7,94,82
"COc1cc(-c2ccc(-c3cnc(N(C)[C@@H]4CC5COC[C@H](N5)[C@@H]4F)cn3)c(O)c2)ccn1 (single isomer, unassigned) [Compound 81E1]",501 to 10000,501 to 10000,1,2.69,3.08,28,47
"COc1cc(-c2ccc(-c3cnc(N(C)[C@H]4C[C@@H]5COCC(N5)[C@H]4F)cn3)c(O)c2)ccn1 (single isomer, unassigned) [Compound 81E2]",501 to 10000,101 to 500,2,2,3.4,42,77
"CN(c1cnc(-c2ccc(-c3ccn(C)c(=O)c3)cc2O)cn1)[C@@H]1CC2CCC[C@H](N2)[C@@H]1F (single isomer, unassigned) [Compound 83E1]",101 to 500,101 to 500,52,0.94,48.4,78,81
"CN(c1cnc(-c2ccc(-c3ccn(C)c(=O)c3)cc2O)cn1)[C@H]1C[C@@H]2CCCC(N2)[C@H]1F (single isomer, unassigned) [Compound 83E2]",16 to 50,101 to 500,36,1.28,45,106,118
"CN(c1cnc(-c2ccc(-c3ccn(C)c(=O)c3)cc2O)cn1)[C@@H]1C[C@H]2CCC[C@H](N2)[C@@H]1F [Compound 5E1, 4-(4-(5-(((1S,2S,3R,5R)-2-fluoro-9-azabicyclo[3.3.1]nonan-3-yl)(methyl)amino)pyrazin-2-yl)-3-hydroxyphenyl)-1-methylpyridin-2(1H)-one]",0.01 to 15,51 to 100,25,2.04,50.3,84,90
"CN(c1cnc(-c2ccc(-c3cn[nH]c3)cc2O)cn1)[C@H]1C[C@]2(C)CCC[C@@](C)(N2)[C@H]1F [Compound 23E2, 2-(5-(((1R,2S,3S,5S)-2-fluoro-1,5-dimethyl-9-azabicyclo[3.3.1]nonan-3-yl)(methyl)amino)pyrazin-2-yl)-5-(1H-pyrazol-4-yl)phenol]",0.01 to 15,16 to 50,2,5.71,13.6,39,65
"COc1cc(-c2ccc(-c3cnc(N(C)[C@@H]4C[C@@]5(C)CC[C@](C)(N5)[C@@H]4F)cn3)c(O)c2)cnn1 [Compound 25E1, 2-(5-(((1S,2R,3R,5R)-2-fluoro-1,5-dimethyl-8-azabicyclo[3.2.1]octan-3-yl)(methyl)amino)pyrazin-2-yl)-5-(6-methoxypyridazin-4-yl)phenol]",501 to 10000,501 to 10000,7,5.6,39.6,45,64
"COc1cc(-c2ccc(-c3cnc(N(C)[C@H]4C[C@]5(C)CC[C@@](C)(N5)[C@H]4F)cn3)c(O)c2)cnn1 [Compound 25E2, 2-(5-(((1R,2S,3S,5S)-2-fluoro-1,5-dimethyl-8-azabicyclo[3.2.1]octan-3-yl)(methyl)amino)pyrazin-2-yl)-5-(6-methoxypyridazin4-yl)phenol]",101 to 500,501 to 10000,5,5.01,22.9,42,70
"CN(c1cnc(-c2cc(F)c(-c3cn[nH]c3)cc2O)cn1)[C@@H]1C[C@@]2(C)CC[C@](C)(N2)[C@@H]1F [Compound 57E1, 4-fluoro-2-(5-(((1S,2R,3R,5R)-2-fluoro-1,5-dimethyl-8-azabicyclo[3.2.1]octan-3-yl)(methyl)amino)pyrazin-2-yl)-5-(1H-pyrazol-4-yl)phenol]",16 to 50,101 to 500,3,5.9,18.8,37,59
